The values below come from US20240279202A1 (NURIX THERAPEUTICS, INC., priority 2021, published 2024).

A short description of series [1]: Mouse PK analysis (blood/plasma concentration after oral administration). It is filed as in vivo. As to conditions: mouse; mice, oral, plasma. As to the method:
Compounds 1, 3, 7, and 42 were formulated and administered at 90 mg/kg to mice by oral gavage (PO). Blood was collected at defined time points (after 1, 2, and 6 hours) after compounds administration to determine PK parameters. Concentration increased through 6 hours. Six hours later mice were sacrificed and splenocytes were isolated and used to prepare protein lysates. Total protein levels were determined in the lysates using the BCA assay according to standard methods. Equal amounts of protein were then analyzed by Western blot to determine the level of ITK expression in each sample. ITK band intensities were measured using Alpha View software and the percent of ITK remaining in each test animal was determined relative to the mean of ITK levels in vehicle control samples.
Compounds 16, 17, and 18 were administered to mice orally. After 6 hours or 24 hours, splenocytes cells were harvested. ITK was evaluated by Western blotting. Plasma concentrations were determined by LC/MS/MS. Plasma samples were protein precipitated by addition of 100 μl of acetonitrile containing 50 ng/ml of internal standard. The resulting mixture was vortexed and centrifuged at 4000 RPM for 5 minutes. An aliquot of the resultant supernatant (75 μl) was added to 75 μl of 0.1% formic acid in water to constitute the final sample for injection. Samples were injected on a Shimadzu Exion LC Binary Gradient AD Pump HLPC system connected to a Sciex QTRAP 6500+mass spectrometer. Five μl of sample was injected onto a Waters Acquity UPLC BEH C18 column 130A (2.1×30 mm, […]) at 40° C. utilizing a flow rate of 700 μl/minute. Mobile Phase A was 0.1% formic acid in water and mobile phase B was 0.1% formic acid in acetonitrile. A linear gradient of 15-95% B over 1.0 minute was used. The mass spectrometer was operated in positive ion electrospray mode with multiple reaction monitoring for maximum sensitivity. Sciex Analyst software (version 1.6.3) was used for LC/MS/MS instrument control and acquisition. Compound concentration was determined against a standard curve of internal standard versus compound peak area ratio. Noncompartmental PK parameters were determined using […] software (version 8.2.0.4383) from Certara. Plasma concentrations from the LC/MS/MS analyses, dose, route of administration, and desired units were utilized for PK parameter calculations. […] FIG. 4C provides the concentration over time of compound 17 following in vivo oral administration in the 6 hour and 24 hour assays.
Cmax, Tmax and AUClast were all calculated using a WinNonLin Phoenix 64 v 8.2.0.4383. Using non-compartmental analysis, Tmax, Cmax and AUClast were determined as follows: • Tmax—Time of maximum observed concentration. • Cmax—Maximum observed concentration, occurring at time Tmax, as defined above. • AUClast—Area under the curve from the time of dosing to the time of the last measurable (positive) concentration (Tlast).

In another series the target is T1, ITK (Homo sapiens, UniProt Q08881).
T1 sequence (Q08881 1-620): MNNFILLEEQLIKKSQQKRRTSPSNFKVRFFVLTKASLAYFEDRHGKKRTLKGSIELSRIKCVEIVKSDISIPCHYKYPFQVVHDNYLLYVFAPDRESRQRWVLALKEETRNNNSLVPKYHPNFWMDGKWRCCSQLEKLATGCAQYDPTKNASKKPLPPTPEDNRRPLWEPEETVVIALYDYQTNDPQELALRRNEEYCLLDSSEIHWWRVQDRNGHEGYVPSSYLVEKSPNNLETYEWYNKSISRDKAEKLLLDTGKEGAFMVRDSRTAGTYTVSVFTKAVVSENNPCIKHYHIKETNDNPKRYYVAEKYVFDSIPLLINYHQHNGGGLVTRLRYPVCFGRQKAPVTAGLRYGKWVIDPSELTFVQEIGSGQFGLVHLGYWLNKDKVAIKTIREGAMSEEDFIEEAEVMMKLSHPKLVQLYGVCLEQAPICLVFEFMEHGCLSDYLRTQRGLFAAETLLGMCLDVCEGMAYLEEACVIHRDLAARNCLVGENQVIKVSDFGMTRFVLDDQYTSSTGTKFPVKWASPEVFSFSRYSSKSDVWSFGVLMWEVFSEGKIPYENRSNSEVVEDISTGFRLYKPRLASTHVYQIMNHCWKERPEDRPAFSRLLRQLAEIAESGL
Kind of series: ITK degradation HiBiT assay. The class given is cell-based. Also noted: expressed in transfected cells; host or cells: Molt4 (ATCC CRL-1552), monoclonal clone 1C10, engineered to carry the HiBiT tag. The conditions noted are these: 4 hrs; for Dmax: MOLT-4, C-terminal HiBiT-tagged Molt4 cells; for DC50: C-terminal HiBiT-tagged Molt4 cells. A digest of the protocol: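 C-terminal HiBiT-tagged Molt4 cells (clone 1C10) treated 4 h at 32° C with an 11-point, 5-fold compound dilution series (0.5% DMSO). HiBiT lytic detection with LgBiT then luminescence read; % ITK remaining versus concentration fit by four-parameter variable-slope model to give DC50 and Dmax.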

For `C[C@@]12Cc3[nH]nc(C(=O)Nc4cnn([C@H](c5ccccc5)C5CN(C(=O)C6CN(c7ccc(C8CCC(=O)NC8=O)cn7)C6)C5)c4)c3C[C@@H]1C2(F)F` (stereo partly drawn) [Compound 51, (4aS,5aR)-N-(1-((1S)-(1-(1-(5-(2,6-dioxopiperidin-3-yl)pyridin-2-yl)azetidine-3-carbonyl)azetidin-3-yl)(phenyl)methyl)-1H-pyrazol-4-yl)-5,5-difluoro-5a-methyl-1,4,4a,5,5a,6-hexahydrocyclopropa[f]indazole-3-carboxamide], in series [1], the area under the curve AUC(0-t) (in general, the area under the concentration-time curve up to a stated or last time point) came to 2.34 µM·h; the Cmax (commonly the peak of the concentration-time curve) turned out to be 720 nM; the Tmax (in general, the time at which the peak concentration occurs) stood at 6 h. In the case of `CC1(C)CCc2c(-c3cc4ccc(C(=O)N5CCC(CN6CCC7(C6)CN(c6ccc(C8CCC(=O)NC8=O)cn6)C7)CC5)cc4[nH]3)n[nH]c2C1` (stereo not shown) [Compound 61, 3-(6-(6-((1-(2-(6,6-dimethyl-4,5,6,7-tetrahydro-1H-indazol-3-yl)-1H-indole-6-carbonyl)piperidin-4-yl)methyl)-2,6-diazaspiro[3.4]octan-2-yl)pyridin-3-yl)piperidine-2,6-dione], on ITK, the greatest degradation seen (Dmax) (in general, the largest share of the target that was removed) was found to be 83%. For the same compound, in series [1], the AUC(0-t) is 0.08 µM·h, the Cmax was determined as 23 nM and the Tmax turned out to be 1.5 h. For the compound `C[C@@]12Cc3[nH]nc(C(=O)Nc4cnn([C@H](c5ccccc5)C5CN(C(=O)N6CCC7(CCN(c8ccc9c(c8)C(=O)N(C8CCC(=O)NC8=O)C9=O)CC7)C6)C5)c4)c3C[C@@H]1C2(F)F` (stereo partly shown) [Compound 53], on ITK, the DC50 (as a rule, the concentration at which degradation of the target reaches its halfway point) turned out to be 3.3 nM and the maximal degradation (Dmax) worked out at 94%.

In turn, `C[C@@]12Cc3[nH]nc(C(=O)Nc4cnn(C5CCC(C(=O)N6CCN(c7ccc(C8CCC(=O)NC8=O)cc7)CC6)CC5)c4)c3C[C@@H]1C2(F)F` (mixture of isomers) [Compound 179] had a Dmax on ITK of 88%. With `C[C@H]1CN(C(=O)c2ccc3cc(-c4n[nH]c5c4C[C@@H]4C(F)(F)[C@]4(C)C5)[nH]c3c2)CCN1CC1CCN(c2ccc(C3CCC(=O)NC3=O)cc2)CC1` (mixture of isomers) [Compound 153], the Dmax on ITK turned out to be 80%.

With `C[C@@]12Cc3[nH]nc(C(=O)Nc4cnn(CC5CCN(CC6CCN(C(=O)c7ccc(F)c(N8CCC(=O)NC8=O)c7)CC6)CC5)c4)c3C[C@@H]1C2(F)F` [Compound 204], the maximal degradation (Dmax) on ITK came out at 70%. On ITK, `C[C@@]12Cc3[nH]nc(-c4nc5ccc(C(=O)N6CCN(CC7CCN(c8ccc(C9CCC(=O)NC9=O)cc8)CC7)CC6)cc5[nH]4)c3C[C@@H]1C2(F)F` (mixture of isomers) [Compound 227, (3RS)-3-(4-{4-[(4-{2-[(4aS,5aR)-5,5-difluoro-5a-methyl-1H,4H,4aH,6H-cyclopropa [f]indazol-3-yl]-3H-1,3-benzodiazole-5-carbonyl}piperazin-1-yl)methyl]piperidin-1-yl}phenyl)piperidine-2,6-dione] gave a DC50 of 0.6 nM and a maximal degradation (Dmax) of 87%. `C[C@H]1CN(C(=O)c2ccc3cc(-c4n[nH]c5c4CCC(C)(C)C5)[nH]c3c2)CCN1CC1CCN(c2ccc(C3CCC(=O)NC3=O)cc2)CC1` (mixture of isomers) [Compound 152] registered a Dmax on ITK of 80%. With `C[C@@H]1CN(C(=O)c2ccc3cc(-c4n[nH]c5c4C[C@@H]4C(F)(F)[C@]4(C)C5)[nH]c3c2)CCN1CC1CCN(c2ccc(C3CCC(=O)NC3=O)c(F)c2)CC1` (stereo partly shown) [Compound 160], the Dmax on ITK is 83%. Regarding `CC1(C)CCc2c(-c3cc4ccc(C(=O)N5CCC(C6CCN(c7ccc(C8CCC(=O)NC8=O)cn7)CC6)CC5)cc4[nH]3)n[nH]c2C1` (stereo not shown) [Compound 58, 3-(6-(1′-(2-(6,6-dimethyl-4,5,6,7-tetrahydro-1H-indazol-3-yl)-1H-indole-6-carbonyl)-[4,4′-bipiperidin]-1-yl)pyridin-3-yl)piperidine-2,6-dione], at ITK, the DC50 came out at 13.4 nM and the maximal degradation (Dmax) came out at 69%. Also, in series [1], the AUC(0-t) amounted to 0.18 µM·h, the Cmax was determined as 61 nM and the Tmax worked out at 1.5 h. On ITK, `Cc1cc(N2CCC(CN3CCN(C(=O)c4ccc5cc(-c6n[nH]c7c6CCC(C)(C)C7)[nH]c5c4)CC3)CC2)ccc1C1CCC(=O)NC1=O` (stereo not shown) [Compound 182] registered a Dmax of 70%.

On ITK, `C[C@@]12Cc3[nH]nc(C(=O)Nc4ccc(C5CCN(CC6CCN(c7ccc(C8CCC(=O)NC8=O)cc7)CC6)CC5)cc4)c3C[C@@H]1C2(F)F` (stereo partly drawn) [Compound 108, (4aS,5aR)-N-(4-(1-((1-(4-(2,6-dioxopiperidin-3-yl)phenyl)piperidin-4-yl)methyl)piperidin-4-yl)phenyl)-5,5-difluoro-5a-methyl-1,4,4a,5,5a,6-hexahydrocyclopropa[f]indazole-3-carboxamide] registered a half-maximal degradation concentration (DC50) of 1.8 nM and a Dmax of 88%. As for `C[C@@]12Cc3[nH]nc(-c4cc5cc(F)c(C(=O)N6CCN(C[C@H]7CCN(c8ccc(C9CCC(=O)NC9=O)cc8)C7)CC6)cc5[nH]4)c3C[C@@H]1C2(F)F` (stereo partly shown) [Compound 145], the Dmax on ITK was 75%.
